Assay results taken from US6451831B1, “Agent for hypoalbuminaemia” (Nippon Zoki Pharmaceutical Co., Ltd., priority 2001, dated 2002).

Assays:
[1] = tested on: patients suffering from hypoalbuminaemia (serum albumin value less than 3.0 g/dL); assay: Clinical test: serum albumin values in patients suffering from hypoalbuminaemia; assay type: in vivo, human
Procedure: The compound of the present invention (Compound 21 ) was administered to 6 patients suffering from hypoalbuminaemia (serum albumin value was less than 3.0 g/dL) at the dose of 200 mg/day (dosage for only Patient 1 was 400 mg/day). Serum albumin values were compared between before and after administration for 24 weeks (after 16 weeks in case of only Patient 2). […] In another case of tested subjects showing a normal value of serum albumin, any change of the value was not noted by the administration of the compounds of the present invention.

[2] = tested on: patients; assay: Clinical tests: toxicity and side effects; assay type: in vivo, human; details: clinically confirmed

With `CN1C(=O)NC(=O)C1O` (stereo not drawn) [Compound 21, 5-Hydroxy-1-methylhydantoin] the “Effect on serum albumin values (in words)” value ([1]; 6 patients with hypoalbuminaemia, 200 mg/day (Patient 1: 400 mg/day), 24 weeks (Patient 2: 16 weeks), paired t-test) was “significantly increased”, the “Serum albumin value After Administration for 24 weeks” value ([1]; Patient 1, 400 mg/day, 24 weeks, before administration 1.7 g/dL) was 2.1 g/dL and the “Serum albumin value After Administration for 24 weeks” value ([1]; Patient 2, 200 mg/day, after 16 weeks according to text, before administration 2.0 g/dL) was 2.3 g/dL. The “Serum albumin value After Administration for 24 weeks” value ([1]; Patient 3, 200 mg/day, 24 weeks, before administration 2.3 g/dL) was 3.4 g/dL, the “Serum albumin value After Administration for 24 weeks” value ([1]; Patient 4, 200 mg/day, 24 weeks, before administration 2.4 g/dL) was 2.7 g/dL and the “Serum albumin value After Administration for 24 weeks” value ([1]; Patient 5, 200 mg/day, 24 weeks, before administration 2.5 g/dL) was 3.2 g/dL. For the same compound, the “Serum albumin value After Administration for 24 weeks” value ([1]; Patient 6, 200 mg/day, 24 weeks, before administration 2.7 g/dL) was 3.0 g/dL, the “Serum albumin value After Administration for 24 weeks, Mean Value” ([1]; mean of 6 patients, before administration 2.3 ± 0.2 g/dL, p < 0.01, paired t-test) was 2.8 ± 0.2 g/dL and the “Toxicity and side effects (in words)” value [2] was “low toxicity and lower side effects”.
